Assay: Inhibition of Yersinia pestis Dam using oligonucleotide 1 as substrate after 2000 to 3000 sec by micro plate reader based real-time break-light assay

| Compound | IC50 [µM] |
| --- | --- |
| Nc1ncnc2c1ncn2[C@@H]1O[C@H](CN(CCCc2ccccn2)CC[C@H](N)C(=O)O)[C@@H](O)[C@H]1O | > 250 |
| Nc1ncnc2c1ncn2[C@@H]1O[C@H](CN(CCc2cccc3[nH]ccc23)CC[C@H](N)C(=O)O)[C@@H](O)[C@H]1O | 31.3 |
| Nc1ncnc2c1ncn2[C@@H]1O[C@H](CN(CC[C@H](N)C(=O)O)Cc2ccccn2)[C@@H](O)[C@H]1O | > 250 |
| Nc1ncnc2c1ncn2[C@@H]1O[C@H](CN(CCCc2c[nH]c3ccccc23)CC[C@H](N)C(=O)O)[C@@H](O)[C@H]1O | 13.1 |
| Nc1ncnc2c1ncn2[C@@H]1O[C@H](CN(CCc2csc3ccccc23)CC[C@H](N)C(=O)O)[C@@H](O)[C@H]1O | 28.9 |
| Nc1ncnc2c1ncn2[C@@H]1O[C@H](CSCC[C@H](N)C(=O)O)[C@@H](O)[C@H]1O [S-ADENOSYLHOMOCYSTEINE] | 11.9 |
| Nc1ncnc2c1ncn2[C@@H]1O[C@H](CNCC[C@H](N)C(=O)O)[C@@H](O)[C@H]1O | 84 |
| Nc1ncnc2c1ncn2[C@@H]1O[C@H](CN(CCc2c[nH]c3ccccc23)CC[C@H](N)C(=O)O)[C@@H](O)[C@H]1O | 12.3 |
| Nc1ncnc2c1ncn2[C@@H]1O[C@H](CN(CCc2coc3ccccc23)CC[C@H](N)C(=O)O)[C@@H](O)[C@H]1O | 39.2 |

From ChEMBL document CHEMBL2016468, “Development of rationally designed DNA N6 adenine methyltransferase inhibitors” (Bioorg Med Chem Lett, 2012)
